From patent US5922775A, “Method of treating malignant tumors with ketone thyroxine analogues having no significant hormonal activity” (priority 1997, dated 1999)
Entries after “also recorded” stand apart in the source; their conditions may differ.

Legend:
[1] = tested on: non-malignant mouse pituitary adenoma; settings: cited from earlier work
cellular esterases = assay: Stability against cellular esterases
Excerpt: Moreover, amide analogs of DIME, having an NH2 or a substituted amino group, may be subject to hydrolysis catalyzed by cellular amidases. Since the hydrolysis product of such a hydrolysis is a carboxylic acid, the same decrease in efficacy can result. In order to decrease the chemical lability in the DIME pharmacophore structure, ketone analogues of DIME may be used.
A more detailed kinetic comparison of DIME, DIPE and DIPP on the kinetics of MTP assembly, in a concentration range of zero to 10 μM drug and a louvered GTP concentration (10 μM), is shown in FIG. 3.

protein phosphatase 2A = settings: cited from earlier work
cancer cells = assay: Blocking of mitosis in cancer cells; assay type: cell-based
human cancer cells = settings: cited from earlier work
Rana pipiens tadpoles = settings: tadpole metamorphosis; cited from earlier work
mammary cancer cells = assay: Colony formation by mammary cancer cells (FIG. 1); assay type: cell-based, human; settings: DIME vs DIPE
Excerpt: FIG. 1 is a graph illustrating the cell killing effects of DIME and DIPE on mammary cancer colonies;
The effect of DIME and DIPE on colony formation by mammary cancer cells is illustrated in FIG. 1, where the results are superimposable, confirming that cytocidal action of DIME and DIPE are indistinguishable.

[2] = tested on: human lung cancer cells (A 549); assay: Growth of human lung cancer cells (Table 2 B); assay type: cell-based
Excerpt: The effects of these three substances on the growth of human mammary cancer cells (MDA-MB-231) and human lung cancer cells (A 549) are summarized in Table 2.
(×10^3) Cell number per 2 cm^2

[3] = oral, 1 g/Kg/day for two to three months; cited from earlier work
[4] = tested on: microtubule protein (MTP); assay: Microtubule assembly (MTP polymerization) in vitro, optical test at 350 nm; assay type: biochemical, bovine or rabbit (brain)
Excerpt: This inhibition is critically dependent on the concentration of GTP. The quantitative correlation between the concentrations of DIME and GTP, under conditions of a linear rate of MTP polymerization, follows Michaelis-Menten kinetics and the inhibition portrays a "mixed" type, where km for GTP and Vmax are altered simultaneously. Chemical analogues of DIME inhibit MTP polymerization parallel to their antitumorigenic action in vivo. The MTP site is one of the early cellular response sites of DIME.
J. Oncol. Abnormal spindle structures could be the result of DIME-MTP interaction or reactions of DIME with components of the microtubule organizing center or with as yet undefined systems sequentially or in concert. Since time-dependent quantitative analysis of the MTP system in situ is unsuitable for initial velocity measurement we adapted the in vitro assembly system of neurotubules as a model for a quantitative analysis of the interaction of DIME with MTP. […] The time course of MTP assembly consists of initiation and propagation and termination steps, Gaskin, et al., 1974, "Turbidimetric studies of the in vitro assembly and disassembly of porcine neurotubules", J. Mol. Biol. 89:737-758. The rate of propagation under defined conditions is sufficiently linear to permit kinetic analysis, that can be evaluated with respect DIME and GTP concentrations. As we show here the inhibition of MTP assembly by DIME occurs in the same range of drug concentration as required to inhibit tumorigonesis in vivo, or to inhibit cell replication or induce eventual cell death; Mendeleyev, et al., 1997. "Structural specificity and tumoricidal action of methyl-3,5-diiodo-4-(4'-methoxyphenoxy)benzoate (DIME)" Int. J. Oncol., 10:689-695. Therefore the DIME-MTP interaction is most probably a component of the apparently pleiotropic cellular mechanism of action of DIME.
Preparation of MTP and an optical test for polymerization was adopted from published methods, Gaskin, et al., 1974, "Turbidimetric studies of the in vitro assembly and disassembly of porcine neurotubules", J. Mol. Biol. 89:737-758; Tiwari, et al., 1993, "A pH and temperature-dependent cycling method that doubles the yield of microtubule protein", Anal. Biochem. 215:96-103. Bovine or rabbit brain was homogenized in an equal volume of ice cold buffer containing 100 mM Pipes/K^+ (pH 7.4), 4 mM EGTA. 1 mM MgCl2, 0.5 mM DTT and 0.1 mM PMSF, and centrifuged at 39,000 g for 1 hour at 4° C. To the supernatant, DMSO (8% final concentration) and GTP (1 mM final concentration) were added, followed by incubation at 37° C. for 30 minutes. Microtubules were pelleted at 100,000 g at 37° C. for 30 minutes. The pellets were incubated on ice for 15 minutes, followed by resuspension in ice cold PEM buffer (100 mM Pipes/K+ (pH 6.9), 1 mM EGTA, 1 mM MgCl2). This warm polymerization and cold depolymerization cycle was repeated once more and the cold, resuspended monomeric MTP (8-10 mg/ml protein) was used for the optical test for polymerization kinetics. Both rabbit or bovine brain yielded identical MTP preparations.
The polymerization reaction was started by the addition of […] of MTP solution (equivalent to 0.8-1.0 mg protein) and initial linear rates of increase in absorbance at 350 nm followed and recorded at 37° C. in a Perkin-Elmer 552 double beam spectrophotometer, equipped with a thermostatically controlled cuvette holder.
It is apparent that the rate of MTP polymerization proceeds in a linear manner, thus conditions for maximal polymerization rates as defined by Berne, B, 1974, "Interpretation of light scattering from long rods", J. Mol. Biol. 89:755-758 appear fulfilled. Therefore it is possible to determine the quantitative correlation between [DIME] and [GTP] by comparing the linear rate in the presence of varying drug and activator concentrations.
The assay system consisted of 240 μl of PEM buffer containing 8% DMSO […]
(added in 3 μl), or solvent control and 0.6 mg MTP (60 μl). […]

[5] = tested on: biosynthetic pathways of DNA, RNA or proteins; settings: cited from earlier work

In the case of `COC(=O)c1cc(I)c(Oc2ccc(OC)cc2)c(I)c1` [DIME, methyl 3,5-diiodo-4-(4'-methoxyphenoxy)benzoate], the “inhibition of growth of non-malignant pituitary tumor” value [1] is given as “no inhibitory activity”, the stability against esterases (cellular esterases) is given as “labile with respect to hydrolysis catalyzed by cellular esterases” and the “activation of protein phosphatase 2A” value (protein phosphatase 2A) is given as “directly activates protein phosphatase 2A”. The “blocking of mitosis in cancer cells” value (cancer cells) was “capable of blocking mitosis in cancer cells”, the “cytostatic / cytocidal activity” value (human cancer cells; cellular assays and in vivo) was “highly active both in cellular assays and in vivo” and the “growth inhibition of malignant cell types” value (human cancer cells) was “inhibit the growth of a variety of malignant cell types”. For the same compound, the tumor cell apoptosis (human cancer cells) was “induce tumor cell apoptosis preceded by micronucleation”, the “tumoricidal activity in cell cultures” value (human cancer cells) was “potential tumoricidal agent both in cell cultures and in vivo” and the “cell differentiating / metamorphogenic activity” value (Rana pipiens tadpoles) was “no significant metabolic or metamorphogenic action; also recorded: no significant metabolic or cell differentiating activity”. The “effect on colony formation (FIG. 1)” value (mammary cancer cells) was “superimposable”, the Cell number ([2]; 2 μM, 48 hours, control 110) was 100 ×10^3 cell number per 2 cm^2 w and the Cell number ([2]; 2 μM, 72 hours, control 190) was 180 ×10^3 cell number per 2 cm^2 w. For the same compound, the Cell number ([2]; 5 μM + BNPP 150 μM (esterase inhibitor), 48 hours, control 110) was 24 ×10^3 cell number per 2 cm^2 w, the Cell number ([2]; 5 μM + BNPP 150 μM (esterase inhibitor), 72 hours, control 190) was 15 ×10^3 cell number per 2 cm^2 w and the Cell number ([2]; 5 μM, 48 hours, control 110) was 72 ×10^3 cell number per 2 cm^2 w. The Cell number ([2]; 5 μM, 72 hours, control 190) was 135 ×10^3 cell number per 2 cm^2 w, the “effect of esterase inhibitor BNPP on cytocidal action” value ([2]; lung cancer cells, with BNPP) was “the esterase inhibitor supported the DIME effect (at 72 hrs)” and the toxicity [3] was “not toxic”. The “Percent inhibition of intitial velocity (microtubule assembly in vitro)” value ([4]; 10 μM drug, GTP 1 mM, 37° C., averages of duplicate assay) was 93%, the “change of km GTP” value ([4]; 1 mM DIME [sic]) was roughly 50% and the “decrease of Vmax” value ([4]; 1 mM DIME [sic]) was roughly 50%. For the same compound, the Km ([4]; 1 mM DIME [sic], from 6.7 mM without drug, read-out: km GTP in presence of DIME) was 14 µM, the “inhibition of MTP polymerization with increasing DIME” value ([4]; 1 mM GTP, increasing DIME concentrations) was “progressively inhibit MTP polymerization” and the “inhibition of GTP-dependent polymerization of MTP” value ([4]; DIME at 1 to 5 mM as printed) was “inhibits the GTP-dependent polymerization of MTP”. The “type of inhibition of MTP polymerization (DIME vs GTP)” value ([4]; double reciprocal plot / Michaelis-Menten, 1 mM DIME) was “"mixed" type inhibition”, the “inhibitory action on MTP assembly (comparison, FIG. 2)” value ([4]; drug concentrations up to 20 μM) was “similar” and the “order of potency on MTP assembly (FIG. 3)” value ([4]; zero to 10 μM drug, lowered GTP concentration (10 μM)) was “DIME>DIPE>DIPP”. For the same compound, the “inhibition of biosynthetic pathways of DNA, RNA or proteins” value [5] was “nor does it inhibit the biosynthetic pathways of DNA, RNA or proteins”.
